One block for each molecule: values may come before it.
What was measured:
guinea pigs = settings: cough induced by capsaicin and citric acid; cited from earlier work
guinea pig pain models = settings: guinea pig models of inflammatory and neuropathic pain; cited from earlier work
VR1 [1] = target: T1, VR1 (Homo sapiens, UniProt Q8NER1); experiment: [3H] Resiniferatoxin binding assay on cell membranes; parameters: expressed in transfected cells; inferred to be hVR1/HEK293; settings: [3H] RTX displacement, 37° C. 60 min
VR1 [2] = target: T1, VR1; experiment: Functional assay: block of capsaicin-induced Ca2+ influx (FLIPR, hVR1/HEK293 cells); assay type: cell-based; parameters: expressed in transfected cells; host or cells: HEK293
Description: Functional assay: block of capsaicin-induced Ca^2+ influx
The contents of the wells were mixed 3 times (40 μL mix volume) immediately after the additions were made.

T1 sequence (Q8NER1 whole entry): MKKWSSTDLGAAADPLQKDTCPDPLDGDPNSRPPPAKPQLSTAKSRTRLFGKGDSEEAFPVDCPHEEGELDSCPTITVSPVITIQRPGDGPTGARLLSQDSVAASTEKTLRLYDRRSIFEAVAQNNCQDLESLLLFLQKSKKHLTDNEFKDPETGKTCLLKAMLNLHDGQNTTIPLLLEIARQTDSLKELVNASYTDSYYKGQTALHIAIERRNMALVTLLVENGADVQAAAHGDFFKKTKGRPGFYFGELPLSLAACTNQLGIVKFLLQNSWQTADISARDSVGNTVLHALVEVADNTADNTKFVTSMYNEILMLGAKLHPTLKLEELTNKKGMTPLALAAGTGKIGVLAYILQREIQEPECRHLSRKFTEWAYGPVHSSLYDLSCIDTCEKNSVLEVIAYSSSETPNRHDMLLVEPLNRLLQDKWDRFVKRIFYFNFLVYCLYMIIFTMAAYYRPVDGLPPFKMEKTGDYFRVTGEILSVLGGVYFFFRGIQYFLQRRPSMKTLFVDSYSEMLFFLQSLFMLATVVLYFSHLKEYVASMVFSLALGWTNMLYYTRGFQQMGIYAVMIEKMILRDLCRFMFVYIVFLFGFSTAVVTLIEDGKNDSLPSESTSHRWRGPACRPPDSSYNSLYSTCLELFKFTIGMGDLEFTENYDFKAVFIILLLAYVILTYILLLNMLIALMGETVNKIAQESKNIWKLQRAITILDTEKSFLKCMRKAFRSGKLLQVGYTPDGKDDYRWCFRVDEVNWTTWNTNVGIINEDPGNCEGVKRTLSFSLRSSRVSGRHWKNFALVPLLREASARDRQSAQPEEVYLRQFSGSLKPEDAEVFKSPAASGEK

Structure (SMILES): Oc1cc2c(cc1O)CN(C(=S)NCCc1ccc(Cl)cc1)CCC2 [Capsazepine]
- inhibition of cough (guinea pigs): inhibits cough induced by capsaicin and citric acid
- reversal of mechanical hyperalgesia (guinea pig pain models): reverses mechanical hyperalgesia

Structure (SMILES): O=C(Nc1ccc(C(F)(F)F)cn1)N1CCN(c2ncccc2Cl)CC1 [Comparative A, 4-(3-chloro-pyridin-2-yl)-piperazine-1-carboxylic acid (5-trifluoromethyl-pyridin-2-yl)-amide]
- Ki (VR1 [1]): 1020 nM
- IC50 (VR1 [2]; block of Ca2+ influx induced by 15 nM capsaicin, hVR1/HEK293, 3 and 60 min incubation data combined): 120 nM

- capsaicin concentration at ~EC80 (VR1 [2]; agonist, human recombinant VR1 in hVR1/HEK293): ~15 nM
Structure (SMILES): COc1cc(CNC(=O)CCCC/C=C/C(C)C)ccc1O [capsaicin]
